PubChem BioAssay (NCI)
Several values for one entry are separate records, joined by “and”; a condition that tells them apart may be missing. Equal entries are not always repeated.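 48-hour exposure; five concentrations; linearly interpolated endpoints. GI50: concentration for 50% inhibition of growth. TGI denotes the concentration required for complete inhibition of growth.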 Starred links: 1 amine or outer side, 2 acyl side, 3 side chain; linkers in the order of their positions; H or OH if unused. Positions of bridges follow the written chain, without caps; N, C: chain ends. Non-standard residues stand in square brackets, D forms with d. Residues, ends and D or L forms follow the SMILES beside them. Chains are numbered I, II in the order given. Actinocin(9to1) = Cc1c2oc3c(C)ccc(C(=O)[*:1])c3nc-2c(C(=O)[*:2])c(N)c1=O; NMeY = CN[CH](Cc1ccc(O)cc1)C(=O)O; Sar = CNCC(=O)O

Tests used:
Test in all cases: growth of human tumour cells (NCI), 48 h
[1] = test system: LOX IMVI melanoma
[2] = test system: OVCAR-5 ovarian
[3] = test system: MALME-3M melanoma
[4] = test system: MCF7 breast
[5] = test system: HT29 colon
[6] = test system: ACHN renal
[7] = test system: EKVX NSCLC
[8] = test system: HCT-116 colon
[9] = test system: SR leukemia
[10] = test system: U251 CNS
[11] = test system: M14 melanoma
[12] = test system: A549 NSCLC
[13] = test system: NCI/ADR-RES ovarian
[14] = test system: CCRF-CEM leukemia
[15] = test system: MDA-N
[16] = test system: SF-268 CNS
[17] = test system: SK-OV-3 ovarian
[18] = test system: MDA-MB-231 breast
[19] = test system: SK-MEL-5 melanoma
[20] = test system: HOP-92 NSCLC
[21] = test system: MOLT-4 leukemia
[22] = test system: COLO 205 colon
[23] = test system: UACC-62 melanoma
[24] = test system: NCI-H23 lung
[25] = test system: RXF 393 renal
[26] = test system: IGROV1 ovarian
[27] = test system: SK-MEL-28 melanoma
[28] = test system: NCI-H522 lung
[29] = test system: UACC-257 melanoma
[30] = test system: 786-0 renal
[31] = test system: SN12C renal
[32] = test system: HCT-15 colon
[33] = test system: DU-145 prostate
[34] = test system: RPMI-8226 leukemia
[35] = test system: SF-539 CNS
[36] = test system: CAKI-1 renal
[37] = test system: SF-295 CNS
[38] = test system: NCI-H460 lung
[39] = test system: OVCAR-8 ovarian
[40] = test system: K-562 leukemia
[41] = test system: TK-10 renal
[42] = test system: OVCAR-4 ovarian
[43] = test system: KM12 colon
[44] = test system: UO-31 renal
[45] = test system: SNB-75 CNS
[46] = test system: BT-549 breast
[47] = test system: MDA-MB-435
[48] = test system: SK-MEL-2 melanoma
[49] = test system: HCC-2998 colon
[50] = test system: T-47D breast
[51] = test system: A498 renal
[52] = test system: PC-3 prostate
[53] = test system: OVCAR-3 ovarian
[54] = test system: NCI-H226 lung
[55] = test system: HL-60(TB) leukemia
[56] = test system: SW-620 colon
[57] = test system: SNB-19 CNS
[58] = test system: HS 578T breast

Cc1c2oc3c(C)ccc(C(=O)NC4C(=O)NC(C(C)C)C(=O)N5CCCC5C(=O)N(C)CC(=O)N(C)C(Cc5ccc(O)cc5)C(=O)OC4C)c3nc-2c(C(=O)NC2C(=O)NC(C(C)C)C(=O)N3CCCC3C(=O)N(C)CC(=O)N(C)C(Cc3ccc(O)cc3)C(=O)OC2C)c(N)c1=O (stereo not given) (I: TVP[Sar][NMeY] / II: TVP[Sar][NMeY]; ester I:1-I:C, II:1-II:C; linker I:N-II:N via Actinocin(9to1); configuration not given here)
GI50 [1]: 4.36 nM and 0.966 nM | TGI [1]: > 1000 nM | GI50 [2]: 199 nM and 50.8 nM | TGI [2]: 997 nM and > 443 nM | TGI [3]: 273 nM and 156 nM | GI50 [4]: 3.29 nM | TGI [4]: > 1000 nM | GI50 [5]: 8.59 nM and 2.67 nM | TGI [5]: 377 nM and > 412 nM | TGI [6]: > 1000 nM | GI50 [7]: 231 nM and 102 nM | TGI [7]: > 1000 nM | GI50 [8]: 5.53 nM and 1.36 nM | TGI [8]: > 1000 nM | TGI [9]: > 514 nM | TGI [10]: > 1000 nM | GI50 [11]: 175 nM and 51.3 nM | TGI [11]: > 793 nM and 229 nM | GI50 [12]: 49.9 nM and 11.9 nM | TGI [12]: > 1000 nM | GI50 [13]: 494 nM | TGI [13]: > 1000 nM | GI50 [14]: 2.56 nM and 0.73 nM | GI50 [15]: 27.3 nM and 5.11 nM | TGI [15]: > 480 nM and 259 nM | TGI [16]: > 1000 nM | GI50 [17]: 160 nM and 75 nM | TGI [17]: > 1000 nM | GI50 [18]: 136 nM and 31.8 nM | TGI [18]: > 1000 nM | GI50 [19]: 22.7 nM and 6.12 nM | TGI [19]: 221 nM and 25.2 nM | TGI [20]: > 1000 nM | GI50 [21]: 4.26 nM and 1.76 nM | GI50 [22]: 17.5 nM and 5.68 nM | TGI [22]: 216 nM and 88.9 nM | GI50 [23]: 23.5 nM and 5.7 nM | TGI [23]: 157 nM and 21.3 nM | GI50 [24]: 49.3 nM and 12.8 nM | TGI [24]: 287 nM and 77.2 nM | GI50 [25]: 63.5 nM and 22.9 nM | TGI [25]: 307 nM and 87.1 nM | TGI [26]: > 1000 nM | GI50 [27]: 24.8 nM and 7.01 nM | TGI [27]: 205 nM and 74.8 nM | TGI [28]: 110 nM and 31 nM | GI50 [29]: 93.6 nM and 11.1 nM | TGI [29]: 540 nM and 446 nM | TGI [30]: > 1000 nM | TGI [31]: > 1000 nM | GI50 [32]: 988 nM and 116 nM | TGI [32]: > 1000 nM | GI50 [33]: 68.7 nM and 30.2 nM | TGI [33]: > 1000 nM | TGI [34]: 926 nM and > 1000 nM | TGI [35]: 224 nM and 152 nM | TGI [36]: > 1000 nM | GI50 [37]: 43.8 nM and 15.7 nM | TGI [37]: > 1000 nM | GI50 [38]: 5.6 nM and 0.964 nM | TGI [38]: > 1000 nM | TGI [39]: 612 nM | GI50 [40]: 3.38 nM and 0.595 nM | TGI [40]: > 1000 nM | GI50 [41]: 117 nM | TGI [41]: > 1000 nM | TGI [42]: > 301 nM | TGI [43]: 536 nM and > 1000 nM | GI50 [44]: > 726 nM and 87.4 nM | TGI [44]: > 1000 nM and 459 nM | GI50 [45]: 17.4 nM and 3.16 nM | TGI [45]: 278 nM and 228 nM | TGI [46]: 213 nM and 73.3 nM | GI50 [47]: 45.9 nM and 9.9 nM | TGI [47]: 259 nM and 147 nM | TGI [48]: 111 nM and 24.5 nM | GI50 [49]: 104 nM and 11.2 nM | TGI [49]: 277 nM and 169 nM | GI50 [50]: 10.3 nM and 4.57 nM | TGI [50]: > 334 nM | TGI [51]: 664 nM and 110 nM | GI50 [52]: 40.7 nM and 11.5 nM | TGI [52]: > 1000 nM | GI50 [53]: 17.6 nM and 6.46 nM | TGI [54]: > 539 nM | TGI [55]: 94.7 nM | TGI [56]: > 1000 nM | GI50 [57]: 7.97 nM and 3.32 nM | TGI [57]: > 1000 nM | TGI [58]: 52.1 nM and 62.4 nM
